Legend:
RKO = test: Antiproliferative activity against human RKO cells assessed as cell viability incubated for 72 hrs by MTT assay; type: functional, cell-based
MCF7 = test: Antiproliferative activity against human MCF7 cells assessed as cell viability incubated for 72 hrs by MTT assay; type: functional, cell-based; conditions: MCF7, 72 h
PC-3 = test: Antiproliferative activity against human PC-3 cells assessed as cell viability incubated for 72 hrs by MTT assay; type: functional, cell-based; conditions: PC-3, 72 h
MDA-MB-231 = test: cells; conditions: Homo sapiens, MDA-MB-231, 72 h
Description: Antiproliferative activity against human MDA-MB-231 cells assessed as cell viability incubated for 72 hrs by MTT assay

HepG2 = test: Antiproliferative activity against human HepG2 cells assessed as cell viability incubated for 72 hrs by MTT assay; type: functional, cell-based; conditions: HepG2, 72 h
HT-29 = test: Antiproliferative activity against human HT-29 cells assessed as cell viability incubated for 72 hrs by MTT assay; type: functional, cell-based; conditions: HT-29, 72 h
Tubulin = test: Inhibition of tubulin polymerization (unknown origin) in presence of GTP by fluorescence plate reader analysis; type: protein-complex assay, Homo sapiens
[1] = Binding affinity to porcine brain tubulin assessed as dissociation constant measured after 20 mins by fluorescence based analysis; parameters: species or system Sus scrofa

SMILES	IC50 (RKO) [nM]	IC50 (MCF7) [nM]	IC50 (PC-3) [nM]	IC50 (MDA-MB-231) [nM]	IC50 (HepG2) [nM]	IC50 (HT-29) [nM]	IC50 (Tubulin) [nM]	Kd [1] [nM]
COc1ccc(N(C)c2nc(/C=C/c3cccc(F)c3)nc3cccnc23)cc1	510	1180	330	2880	680	200		
CN(c1ccc(F)cc1)c1nc(/C=C/c2ccccc2)nc2ccccc12	540	1080	1110	2850	910	530		
CN(c1ccc2occc2c1)c1nc(/C=C/c2ccccc2)nc2ccccc12	1590	2560	7410	6570	4000	2840		
COc1ccc(N(C)c2nc(/C=C/c3cccc(F)c3)nc3ccccc23)cc1	170	260	90	1250	240	160		
CN(c1ccc(C(F)(F)F)cc1)c1nc(/C=C/c2ccccc2)nc2ccccc12	> 10000	> 10000	> 10000	> 10000	> 10000	> 10000		
CN(c1ccc2c(c1)OCO2)c1nc(/C=C/c2ccccc2)nc2ccccc12	720	1640	1070	3680	1140	2790		
COc1ccc(N(C)c2nc(/C=C/c3ccc(C)cc3)nc3ccccc23)cc1	1710	3110	460	2560	3010	460		
COc1ccc(N(C)c2nc(/C=C/c3cccc(OC)c3OC)nc3ccccc23)cc1	1340	4090	1100	5060	4820	880		
COc1ccc(N(C)c2nc(/C=C/c3cccc(OC)c3)nc3ccc(F)cc23)cc1	240	800	650	1060	360	280		
COc1ccc(N(C)c2nc(/C=C/c3cccc(Br)c3)nc3ccccc23)cc1	> 10000	> 10000	7380	9860	> 10000	> 10000		
CN(c1ccccc1)c1nc(/C=C/c2ccccc2)nc2ccccc12	> 10000	> 10000	> 10000	> 10000	> 10000	> 10000		
COc1ccc(OC)c(N(C)c2nc(/C=C/c3ccccc3)nc3ccccc23)c1	> 10000	> 10000	> 10000	> 10000	> 10000	> 10000		
COc1ccc(N(C)c2nc(/C=C/c3ccccc3)nc3ccccc23)cc1	250	230	340	1360	1190	250		
COc1ccc(N(C)c2nc(/C=C/c3cccc([N+](=O)[O-])c3)nc3ccccc23)cc1	490	1470	410	810	540	300		
COc1cccc(OC)c1N(C)c1nc(/C=C/c2ccccc2)nc2ccccc12	> 10000	> 10000	> 10000	> 10000	> 10000	> 10000		
COc1ccc(N(C)c2nc(/C=C/c3ccc([N+](=O)[O-])cc3)nc3ccccc23)cc1	4270	5610	2850	9480	7010	3240		
COc1ccc(N(C)c2nc(/C=C/c3cc(OC)c(OC)c(OC)c3)nc3ccccc23)cc1	> 10000	> 10000	8340	> 10000	> 10000	> 10000		
COc1ccc(N(C)c2nc(/C=C/c3ccc(OC)cc3OC)nc3ccccc23)cc1	120	140	110	240	220	47	> 10000	43300
COc1ccc(N(C)c2nc(/C=C/c3cccc(OC)c3)nc3cccc(F)c23)cc1	150	460	360	800	410	240		

SMILES	IC50 (RKO) [nM]	IC50 (MCF7) [nM]	IC50 (PC-3) [nM]	IC50 (MDA-MB-231) [nM]	IC50 (HepG2) [nM]	IC50 (HT-29) [nM]	IC50 (Tubulin) [nM]	Kd [1] [nM]
COc1ccc(/C=C/c2nc(N(C)c3ccc(OC)cc3)c3ccccc3n2)cc1	940	3660	2750	1800	4480	890		
CN(c1ccc(OC(F)(F)F)cc1)c1nc(/C=C/c2ccccc2)nc2ccccc12	> 10000	> 10000	> 10000	> 10000	> 10000	> 10000		
COc1ccc(N(C)c2nc(/C=C/c3cccc(F)c3)nc3ccc(F)cc23)cc1	620	340	360	2520	730	460		
COc1ccc(N(C)c2nc(/C=C/c3ccc(Cl)cc3Cl)nc3ccccc23)cc1	1760	> 10000	1450	> 10000	> 10000	4750		
COc1ccc(N(C)c2nc(/C=C/c3cccc(Cl)c3)nc3ccccc23)cc1	1370	1060	2180	4170	1730	710		
COc1ccc(N(C)c2nc(/C=C/c3ccc(Cl)cc3)nc3ccccc23)cc1	460	610	620	830	940	310		
CN(c1ccc2c(c1)OCCO2)c1nc(/C=C/c2ccccc2)nc2ccccc12	410	320	1460	2060	3440	670		
COc1ccc(N(C)c2nc(C)nc3ccccc23)cc1 [VERUBULIN]	9	14	10	23	13	7		
COc1ccc(N(C)c2nc(/C=C/c3cccc(Cl)c3Cl)nc3ccccc23)cc1	5750	> 10000	2990	> 10000	> 10000	1420		
COc1cc(N(C)c2nc(/C=C/c3ccccc3)nc3ccccc23)cc(OC)c1OC	> 10000	> 10000	> 10000	> 10000	> 10000	> 10000		
COc1ccc(N(C)c2nc(/C=C/c3cccc(F)c3)nc3cccc(F)c23)cc1	220	390	400	430	490	210		
COc1ccc(N(C)c2nc(/C=C/c3ccc(OC)c(OC)c3OC)nc3ccccc23)cc1	220	410	490	600	530	170		
COc1ccc(N(C)c2nc(/C=C/c3ccccc3OC)nc3ccccc23)cc1	> 10000	> 10000	740	> 10000	> 10000	8160		
COc1ccc(N(C)c2nc(/C=C/c3ccccc3)nc3ccccc23)c(OC)c1	650	1900	2750	5730	8220	750		
COc1ccc(N(C)c2nc(/C=C/c3ccccc3)nc3ccccc23)cc1OC	630	2050	2850	7030	2840	540		
O=c1[nH]cc(F)c(=O)[nH]1 [FLUOROURACIL]	> 10000	> 10000	> 10000	> 10000	> 10000	> 10000		
COc1cc(OC)cc(N(C)c2nc(/C=C/c3ccccc3)nc3ccccc23)c1	> 10000	> 10000	> 10000	> 10000	> 10000	> 10000		
COc1ccc(N(C)c2nc(/C=C/c3ccc(OC)c(OC)c3)nc3ccccc23)cc1	2730	3500	1460	7240	2740	2010		
